Experimental data taken from DBAASP.
Converted amounts (≈) assume the structure as drawn.

What was measured:
Experiment in all cases: ≥ marks a high value that may be exact or a test limit, other limits are often not marked, values filed in µg/mL are converted to µM
[1] = test system: Aspergillus flavus KCTC 9471
[2] = test system: Aspergillus fumigatus KCTC 6145
Bacillus subtilis = test system: Bacillus subtilis
Botrytis cinerea = test system: Botrytis cinerea
[3] = test system: Candida albicans KCTC 7270
[4] = test system: Escherichia coli O157:H7 ATCC 43895
Escherichia coli = test system: Escherichia coli
Fusarium verticillioides = test system: Fusarium verticillioides
[5] = test system: Listeria monocytogenes KCTC 3710
Proteus vulgaris = test system: Proteus vulgaris
Pseudomonas aeruginosa = test system: Pseudomonas aeruginosa
Saccharomyces cerevisiae = test system: Saccharomyces cerevisiae
Salmonella typhimurium = test system: Salmonella typhimurium
Staphylococcus aureus = test system: Staphylococcus aureus
[6] = test system: Staphylococcus epidermidis
Trichosporon beigelii = test system: Trichosporon beigelii
Edwardsiella tarda = test system: Edwardsiella tarda
Escherichia coli JM109 = test system: Escherichia coli JM109
[7] = test system: Streptococcus iniae FP5228
[8] = test system: Vibrio alginolyticus KCCM 2928
[9] = test system: Vibrio campbellii KCCM 40684
[10] = test system: Vibrio harveyi ATCC 14126
[11] = test system: Vibrio ordalii KCCM 41669
[12] = test system: Vibrio vulnificus KCTC 2982
[13] = test system: Aspergillus niger CECT 2694
[14] = test system: Erwinia amylovora PMV 6076
[15] = test system: Fusarium oxysporum f. sp. lycopersici ATCC 201829
[16] = test system: Penicillium expansum EPS 26
[17] = test system: Pseudomonas syringae EPS 94
[18] = test system: Rhizopus stolonifer CECT 2344
[19] = test system: Xanthomonas vesicatoria 2133-2
Bacillus cereus = test system: Bacillus cereus
[20] = test system: Candida albicans MTCC 227
[21] = test system: Escherichia coli DH5alpha
[22] = test system: Fusarium solani MTCC 10158
[23] = test system: Salmonella enterica subsp. enterica serovar Typhi
[24] = test system: Staphylococcus aureus ATCC 43300
Vibrio cholerae = test system: Vibrio cholerae
[25] = test system: Xanthomonas axonopodis ITCC BD00029
[26] = test system: Xanthomonas oryzae ITCC BB00026
[27] = test system: Bacillus magaterium AB90008
[28] = test system: Enterobacter cloacae AB2010162
[29] = test system: Klebsiella oxytoca AB2010143
[30] = test system: Micrococcus luteus AB2010179
Pseudomonas fluorescens = test system: Pseudomonas fluorescens
Pseudomonas putida = test system: Pseudomonas putida
[31] = test system: Salmonella enterica AB2010185
[32] = test system: Staphylococcus aureus AB94004
[33] = test system: Aeromonas salmonicida RFAS1
[34] = test system: Edwardsiella tarda FP4130

CC[C@H](C)[C@H](NC(=O)[C@H](CCCCN)NC(=O)[C@H](CO)NC(=O)[C@H](Cc1ccccc1)NC(=O)[C@H](CO)NC(=O)[C@H](CCCCN)NC(=O)[C@H](CCC(=O)O)NC(=O)[C@H](CC(C)C)NC(=O)[C@H](CCCN=C(N)N)NC(=O)[C@H](CCCCN)NC(=O)[C@H](Cc1ccccc1)NC(=O)[C@@H](NC(=O)[C@H](CCCCN)NC(=O)[C@H](CCCCN)NC(=O)[C@H](C)N)C(C)C)C(=O)N[C@@H](CCC(N)=O)C(=O)N[C@@H](CC(N)=O)C(=O)N[C@@H](CC(=O)O)C(=O)N[C@@H](CCCCN)C(N)=O [AKKVFKRLEKSFSKIQNDK]
MIC [1]: ≥ 50 µM | MIC [2]: ≥ 50 µM | MIC (Bacillus subtilis): 6.25 µM (≈ 14.3 µg/mL) | MIC (Botrytis cinerea): ≥ 50 µM | MIC [3]: 25 µM (≈ 57.3 µg/mL) | MIC [4]: 12.5 µM (≈ 28.7 µg/mL) | MIC (Escherichia coli): 12.5 µM (≈ 28.7 µg/mL) | MIC (Fusarium verticillioides): ≥ 50 µM | MIC [5]: 12.5 µM (≈ 28.7 µg/mL) | MIC (Proteus vulgaris): 12.5 µM (≈ 28.7 µg/mL) | MIC (Pseudomonas aeruginosa): 12.5 µM (≈ 28.7 µg/mL) | MIC (Saccharomyces cerevisiae): 25 µM (≈ 57.3 µg/mL) | MIC (Salmonella typhimurium): 12.5 µM (≈ 28.7 µg/mL) | MIC (Staphylococcus aureus): > 12.5 µM | MIC [6]: 12.5 µM (≈ 28.7 µg/mL) | MIC (Trichosporon beigelii): 12.5 µM (≈ 28.7 µg/mL)

CC[C@H](C)[C@H](NC(=O)[C@H](CC(C)C)NC(=O)[C@H](CCCN=C(N)N)NC(=O)[C@H](Cc1cnc[nH]1)NC(=O)[C@@H](NC(=O)[C@@H](NC(=O)[C@H](CCCCN)NC(=O)CNC(=O)[C@@H](NC(=O)CNC(=O)[C@@H](NC(=O)[C@H](CC(C)C)NC(=O)CNC(=O)[C@H](CC(N)=O)NC(=O)[C@H](Cc1ccccc1)NC(=O)[C@@H](NC(=O)[C@H](Cc1cnc[nH]1)NC(=O)[C@H](Cc1cnc[nH]1)NC(=O)[C@H](Cc1ccccc1)NC(=O)[C@@H](N)Cc1ccccc1)[C@@H](C)CC)C(C)C)C(C)C)[C@@H](C)O)[C@@H](C)CC)C(=O)O [FFHHIFNGLVGVGKTIHRLI]
MIC (Edwardsiella tarda): 11 µM (≈ 25.4 µg/mL) | MIC (Escherichia coli JM109): 2.72 µM (≈ 6.28 µg/mL) | MIC [7]: 1.9 µM (≈ 4.38 µg/mL) | MIC [8]: 0.9 µM (≈ 2.08 µg/mL) | MIC [9]: 0.9 µM (≈ 2.08 µg/mL) | MIC [10]: 0.9 µM (≈ 2.08 µg/mL) | MIC [11]: ≥ 1000 µM | MIC [12]: 2.72 µM (≈ 6.28 µg/mL)

CC[C@H](C)[C@H](NC(=O)[C@H](CCCCN)NC(=O)[C@H](CCCCN)NC(=O)[C@H](Cc1ccccc1)NC(=O)[C@H](CC(C)C)NC(=O)[C@H](CCCCN)NC(=O)[C@@H](N)Cc1c[nH]c2ccccc12)C(=O)N[C@@H](CC(C)C)C(=O)N[C@@H](CCCCN)C(=O)N[C@@H](Cc1ccc(O)cc1)C(=O)N[C@@H](CC(C)C)C(N)=O [WKLFKKILKYL]
MIC [13]: 17.3 µM (≈ 25.6 µg/mL) | MIC [14]: 3.16 µM (≈ 4.68 µg/mL) | MIC [15]: 0.849 µM (≈ 1.25 µg/mL) | MIC [16]: 22.4 µM (≈ 33.1 µg/mL) | MIC [17]: 3.16 µM (≈ 4.68 µg/mL) | MIC [18]: ≥ 35.4 µM | MIC [19]: 3.16 µM (≈ 4.68 µg/mL)

NCCCC[C@H](NC(=O)[C@H](CCCCN)NC(=O)[C@H](CS)NC(=O)[C@@H]1CSSC[C@H](N)C(=O)N[C@@H](CCCN=C(N)N)C(=O)N[C@@H](Cc2c[nH]c3ccccc23)C(=O)N[C@@H](CCCN=C(N)N)C(=O)N[C@@H](Cc2c[nH]c3ccccc23)C(=O)N[C@@H](CCCCN)C(=O)N1)C(=O)O [CRWRWKCCKK]
MIC (Bacillus cereus): 10 µM (≈ 13.9 µg/mL) | MIC [20]: ≥ 40 µM | MIC [21]: 20 µM (≈ 27.9 µg/mL) | MIC [22]: 20 µM (≈ 27.9 µg/mL) | MIC [23]: 10 µM (≈ 13.9 µg/mL) | MIC [24]: 10 µM (≈ 13.9 µg/mL) | MIC (Vibrio cholerae): 20 µM (≈ 27.9 µg/mL) | MIC [25]: 5 µM (≈ 6.97 µg/mL) | MIC [26]: 10 µM (≈ 13.9 µg/mL)

CC[C@H](C)[C@H](NC(=O)[C@H](CC(C)C)NC(=O)[C@H](CCCCN)NC(=O)[C@H](CC(C)C)NC(=O)[C@H](C)NC(=O)CNC(=O)[C@H](CCCCN)NC(=O)[C@H](C)NC(=O)[C@H](CC(C)C)NC(=O)[C@H](C)NC(=O)CNC(=O)[C@H](Cc1c[nH]c2ccccc12)NC(=O)[C@@H](N)Cc1ccccc1)C(=O)N1CCC[C@H]1C(=O)N[C@@H](CO)C(=O)N[C@@H](CC(C)C)C(=O)N[C@H](C(=O)N[C@@H](CO)C(=O)N[C@@H](CO)C(=O)N[C@@H](Cc1ccccc1)C(=O)N[C@H](C(=O)N[C@@H](CCCCN)C(=O)N[C@@H](CCCCN)C(=O)N[C@@H](CC(=O)O)C(N)=O)[C@@H](C)O)C(C)C [FWGALAKGALKLIPSLVSSFTKKD]
MIC [27]: 30 µM (≈ 77.3 µg/mL) | MIC [28]: ≥ 45 µM | MIC [21]: 15.8 µM (≈ 40.7 µg/mL) | MIC [29]: ≥ 45 µM | MIC [30]: 15.8 µM (≈ 40.7 µg/mL) | MIC (Pseudomonas fluorescens): ≥ 40 µM | MIC (Pseudomonas putida): 20 µM (≈ 51.5 µg/mL) | MIC [31]: 30 µM (≈ 77.3 µg/mL) | MIC [32]: 5.6 µM (≈ 14.4 µg/mL)

CC(C)C[C@H](NC(=O)[C@H](CCCN=C(N)N)NC(=O)CNC(=O)[C@H](Cc1ccccc1)NC(=O)[C@@H](N)Cc1ccccc1)C(=O)N[C@@H](CCCCN)C(=O)N[C@@H](C)C(=O)N[C@H](C(=O)N[C@@H](Cc1ccccc1)C(=O)N[C@@H](CCCN=C(N)N)C(=O)NCC(=O)N[C@@H](C)C(=O)N[C@@H](CCCN=C(N)N)C(=O)N[C@@H](CCC(N)=O)C(=O)NCC(=O)N[C@@H](Cc1c[nH]c2ccccc12)C(=O)N[C@@H](CCCCN)C(=O)N[C@@H](CCC(=O)O)C(=O)N[C@@H](Cc1cnc[nH]1)C(=O)N[C@@H](CCCN=C(N)N)C(=O)N[C@@H](Cc1ccc(O)cc1)C(=O)O)C(C)C [FFGRLKAVFRGARQGWKEHRY]
MIC [33]: 7.8 µM (≈ 20.4 µg/mL) | MIC [34]: 15.6 µM (≈ 40.7 µg/mL) | MIC [7]: 7.8 µM (≈ 20.4 µg/mL) | MIC [8]: 0.5 µM (≈ 1.31 µg/mL) | MIC [10]: 0.5 µM (≈ 1.31 µg/mL) | MIC [11]: 15.6 µM (≈ 40.7 µg/mL)
